# Results: patent publication US20240390484A1 (priority 2022, published 2024)
# Where two headings read alike, the source gives them in different places.
# Assays:
# [1] = Particle size and polydispersity index (PDI) by Dynamic Light Scattering; type: physicochemical; conditions: for “Ready-to-use” S2P RNA formulation PDI / “Ready-to-use” S2P RNA formulation Size: 48/40.5/10/1.5 mol %, blank-LNP added to lyophilized S2P RNA (55 ug/vial), N/P 7
# Procedure: (§1) Lipid nanoparticles (LNPs) were formed or formulated by rapid mixing of an ethanol phase and an aqueous phase using a microfluidic device. The aqueous phase included a 50 mM citrate buffer (pH 5.5). The ethanol phase included an ionizable lipid (as described herein), cholesterol (Jiangsu Southeast Nanomaterials), 1,2-diastearoyl-sn-glycero-3-phosphocholine (DSPC) (Jiangsu Southeast Nanomaterials) and 1,2-dimyristoyl-rac-glycero-3-methoxypolyethylene glycol-2000 (DMG-PEG2000) (SINOPEG). A series of ionizable lipids were evaluated. These four lipid components were mixed at defined molar ratios in ethanol, for instance, at a molar ratio of 48:40.5:10:1.5 (ionizable lipid:cholesterol:DSPC:DMG-PEG2000). The generated LNP particles were purified in citrate buffer (containing sucrose) and characterized with respect to particle size, polydispersity index (PDI) and ionizable lipid concentration. The LNP solution was then diluted to the target concentration and stored at 2-8° C.
# (§2) In the case of a filled LNP, for example, an LNP-encapsulated S-2P RNA liquid drug product, the preparation protocol is essentially the same, except that it was an aqueous solution of S-2P RNA in citrate buffer pH 5-6 that constitutes the aqueous phase for LNP formation. The LNP-encapsulated RNA formulation is also referred to as “RNA-LNP” in this disclosure. Regarding characterization, particle size and polydispersity index (PDI) of the RNA-LNP were determined by Dynamic Light Scattering (DLS); RNA encapsulation efficiency and concentration were determined by means of Ribogreen® assay and RNA purity was determined by agarose gel electrophoresis.
# (§3) The “ready-to-use” RNA product was manufactured by transferring a predetermined amount of already formed LNP in solution to a sealed vial containing the lyophilized RNA composition, followed by mixing at room temperature. The amount of LNP added per vial (e.g., 30-100 μg RNA per vial) was determined based on the molar ionizable lipid:RNA (N/P) molar ratio of 7. In this disclosure, “ready-to-use” S-2P RNA formulations (also referred to as “LNP(S-2P RNA)”) containing 30-100 μg/mL S-2P RNA were prepared, and then characterized with respect to particle size, polydispersity index, as well as RNA concentration, complexation efficiency, and purity using the same methods as described above in Example 3.
# [2] = RNA encapsulation/complexation efficiency by Ribogreen assay; type: physicochemical; conditions: for “Ready-to-use” S2P RNA formulation RNA complexation efficiency: 48/40.5/10/1.5 mol %, blank-LNP added to lyophilized S2P RNA (55 ug/vial), N/P 7
# Procedure: as §2, §3
# BHK-21 cells = type: cell-based; conditions: 4 μg
# Vero E6 cells = type: cell-based; conditions: 4 μg
# [3] = Stability of blank-LNP at 2-8° C. (particle size, PDI); type: physicochemical; conditions: blank-LNP 48/40.5/10/1.5 mol %
# Procedure: as §1
# Each generated blank-LNP formulation was added to and mixed with lyophilized S2P RNA, altogether yielding a series of “ready-to-use” S2P RNA test items containing the different ionizable lipids. The pharmaceutical characteristics (Table 3) and in vitro transfection efficiency (Table 4) of these “ready-to-use” RNA test items were compared head-to-head. In parallel, the stability profiles of these […] blank-LNP formulations (i.e. without RNA complexation) were assessed at 2-8° C. (see Table 5).
# The generated fourteen blank-LNP formulations were characterized in terms of particle size and PDI, both at the end of manufacturing (T=0) and 8-week storage at 2-8° C. […] (defined as size increase ≤20 nm in 8 weeks), namely DMG-PEG2000 between at least 1-4 mol %, DSPC between at least 5-20 mol %, ionizable lipid between at least 30-70 mol % and cholesterol between at least 18.5-58.5 mol %.
# [4] = blank-LNP, 48/40.5/10/1.5 mol % ionizable lipid/cholesterol/DSPC/DMG-PEG
# [5] = ionizable lipid/Chol/DSPC/DMG-PEG 20/57.0/20/3.0 mol %
# [6] = ionizable lipid/Chol/DSPC/DMG-PEG 30/55.0/12/3.0 mol %
# [7] = ionizable lipid/Chol/DSPC/DMG-PEG 40/48.5/10/1.5 mol %
# [8] = ionizable lipid/Chol/DSPC/DMG-PEG 45/43.5/10/1.5 mol %
# [9] = ionizable lipid/Chol/DSPC/DMG-PEG 50/38.5/10/1.5 mol %
# [10] = ionizable lipid/Chol/DSPC/DMG-PEG 60/30.0/8.5/1.5 mol %
# [11] = ionizable lipid/Chol/DSPC/DMG-PEG 70/22.5/6/1.5 mol %
# [12] = ionizable lipid/Chol/DSPC/DMG-PEG 70/22.5/6.0/1.5 mol %
# [13] = ready-to-use S2P RNA, 48 hours post transfection, 48/40.5/10/1.5 mol %
# [14] = various LNP batches, different molar ratios of ionizable lipid:cholesterol:DSPC:DMG-PEG2000
smiles,measurement,setting,value
CCCCCCCCCOC(=O)CCCCCCCOc1ccc(OCCCCCCCC(=O)OC(CCCCCCCC)CCCCCCCC)cc1COC(=O)CCCN(C)C,“Ready-to-use” S2P RNA formulation PDI,[1],0.12
same,“Ready-to-use” S2P RNA formulation Size,[1],173 nm
same,Blank-LNP PDI,[1]; [4],0.13
same,Blank-LNP Size,[1]; [4],88 nm
same,Blank-LNP PDI,[1]; [5],0.18
same,Blank-LNP Size,[1]; [5],82 nm
same,“Ready-to-use” S2P RNA PDI,[1]; [5],0.21
same,“Ready-to-use” S2P RNA Size,[1]; [5],157 nm
same,Blank-LNP PDI,[1]; [6],0.2
same,Blank-LNP Size,[1]; [6],75 nm
same,“Ready-to-use” S2P RNA PDI,[1]; [6],0.21
same,“Ready-to-use” S2P RNA Size,[1]; [6],125 nm
same,Blank-LNP PDI,[1]; [7],0.12
same,Blank-LNP Size,[1]; [7],90 nm
same,“Ready-to-use” S2P RNA PDI,[1]; [7],0.18
same,“Ready-to-use” S2P RNA Size,[1]; [7],169 nm
same,Blank-LNP PDI,[1]; [8],0.04
same,Blank-LNP Size,[1]; [8],87 nm
same,“Ready-to-use” S2P RNA PDI,[1]; [8],0.12
same,“Ready-to-use” S2P RNA Size,[1]; [8],151 nm
same,Blank-LNP PDI,[1]; [9],0.11
same,Blank-LNP Size,[1]; [9],83 nm
same,“Ready-to-use” S2P RNA PDI,[1]; [9],0.13
same,“Ready-to-use” S2P RNA Size,[1]; [9],147 nm
same,Blank-LNP PDI,[1]; [10],0.15
same,Blank-LNP Size,[1]; [10],76 nm
same,“Ready-to-use” S2P RNA PDI,[1]; [10],0.13
same,“Ready-to-use” S2P RNA Size,[1]; [10],143 nm
same,Blank-LNP PDI,[1]; [11],0.21
same,Blank-LNP Size,[1]; [11],77 nm
same,“Ready-to-use” S2P RNA PDI,[1]; [11],0.16
same,“Ready-to-use” S2P RNA Size,[1]; [11],146 nm
same,“Ready-to-use” S2P RNA formulation RNA complexation efficiency,[2],42%
same,"“Ready-to-use” S2P RNA, RNA complex. efficiency",[2]; [5],54%
same,"“Ready-to-use” S2P RNA, RNA complex. efficiency",[2]; [6],61%
same,"“Ready-to-use” S2P RNA, RNA complex. efficiency",[2]; [7],51%
same,"“Ready-to-use” S2P RNA, RNA complex. efficiency",[2]; [8],50%
same,"“Ready-to-use” S2P RNA, RNA complex. efficiency",[2]; [9],48%
same,"“Ready-to-use” S2P RNA, RNA complex. efficiency",[2]; [10],44%
same,"“Ready-to-use” S2P RNA, RNA complex. efficiency",[2]; [11],40%
same,RBD expression in BHK-21 cells,BHK-21 cells; [5],0.082 ng/mL
same,RBD expression in BHK-21 cells,BHK-21 cells; [6],1.655 ng/mL
same,RBD expression in BHK-21 cells,BHK-21 cells; [7],1.517 ng/mL
same,RBD expression in BHK-21 cells,BHK-21 cells; [8],2.090 ng/mL
same,RBD expression in BHK-21 cells,BHK-21 cells; [9],1.887 ng/mL
same,RBD expression in BHK-21 cells,BHK-21 cells; [10],0.812 ng/mL
same,RBD expression in BHK-21 cells,BHK-21 cells; [12],<LOD
same,RBD expression in Vero E6 cells,Vero E6 cells; [5],<LOD
same,RBD expression in Vero E6 cells,Vero E6 cells; [6],0.129 ng/mL
same,RBD expression in Vero E6 cells,Vero E6 cells; [7],1.204 ng/mL
same,RBD expression in Vero E6 cells,Vero E6 cells; [8],1.842 ng/mL
same,RBD expression in Vero E6 cells,Vero E6 cells; [9],1.633 ng/mL
same,RBD expression in Vero E6 cells,Vero E6 cells; [10],1.239 ng/mL
same,RBD expression in Vero E6 cells,Vero E6 cells; [12],0.0939 ng/mL
same,"PDI, T = 1 month",[3],0.09
same,"Size, T = 1 month",[3],88 nm
same,"Change in size (nm) vs. T0, T = 2 weeks",[3],−9 nm
same,"PDI, T = 2 weeks",[3],0.06
same,"Size, T = 2 weeks",[3],79 nm
same,"PDI, T = 0",[3],0.13
same,"Size, T = 0",[3],88 nm
CCCCCCCCCOC(=O)CCCCCCCOc1ccc(OCCCCCCCC(=O)OCCCCCCCCC)c(COC(=O)CCCN(C)C)c1 [Lipid #2],“Ready-to-use” S2P RNA formulation PDI,[1],0.21
same,“Ready-to-use” S2P RNA formulation Size,[1],211 nm
same,Blank-LNP PDI,[1]; [4],0.09
same,Blank-LNP Size,[1]; [4],120 nm
same,RBD expression in BHK-21 cells,BHK-21 cells; [13],1.34 ng/mL
same,RBD expression in Vero E6 cells,Vero E6 cells; [13],0.97 ng/mL
same,"Change in size (nm) vs. T0, T = 1 month",[3],unaltered size
same,"PDI, T = 1 month",[3],0.07
same,"Size, T = 1 month",[3],121 nm
same,"Change in size (nm) vs. T0, T = 1 month",[3]; listed as #2,+1 nm
same,"Change in size (nm) vs. T0, T = 2 weeks",[3],+2 nm
same,"PDI, T = 2 weeks",[3],0.09
same,"Size, T = 2 weeks",[3],122 nm
same,"PDI, T = 0",[3],0.09
same,"Size, T = 0",[3],120 nm
CCCCCCCCCOC(=O)CCCCCCCOc1ccc(OCCCCCCCC(=O)OC(CCCCCCCC)CCCCCCCC)c(COC(=O)CCCN(C)C)c1 [Lipid #5],“Ready-to-use” S2P RNA formulation PDI,[1],0.13
same,“Ready-to-use” S2P RNA formulation Size,[1],137 nm
same,Blank-LNP PDI,[1]; [4],0.2
same,Blank-LNP Size,[1]; [4],91 nm
same,particle size,[1]; [14],80±15 nm
same,polydispersity index,[1]; [14],0.10±0.05
same,“Ready-to-use” S2P RNA formulation RNA complexation efficiency,[2],44%
same,"PDI, T = 1 month",[3],0.14
same,"Size, T = 1 month",[3],93 nm
same,"Change in size (nm) vs. T0, T = 2 weeks",[3],−1 nm
same,"PDI, T = 2 weeks",[3],0.13
same,"Size, T = 2 weeks",[3],90 nm
same,"PDI, T = 0",[3],0.20
same,"Size, T = 0",[3],91 nm
